The record followed here is US6630482B1, “CFTR channel activator compounds and pharmaceutical compositions containing same” (Centre National de la Recherche Scientifique, priority 1996, dated 2003).

Like-named read-outs stand apart in the source and are kept apart here. Where only a bound is given, the exact number is not on record here.

The target in experiment [1] is T1, CFTR channel (Homo sapiens, UniProt P13569). Put plainly: Efflux of radioactive iodide in recombinant CHO (CFTR+) cells. The experiment is classed as cell-based. Set-up: expressed in transfected cells; host or cells: CHO-K1 cells, vector pNUT. The conditions noted are these: for effect on the efflux of iodide / CFTR channel activation: 500 μM; for activation at 500 µM: read-out: % activation relative to control. How it is done: (§1) Several types of cells are used for this study: the intestinal lines T84, Caco-2 and HT 29. Chinese hamster ovary (CHO-K1) cells were transfected with the aid of the vector pNUT (Tabcharani et al., 1991) with or without (control cells) incorporation of normal or mutated CFTR cDNA (Chang et al., 1993). The cells are kept in this specific medium and then inoculated at a low density on to glass slides and cultured at 37° C. (5% CO2), before the patch clamping experiments. The survival medium of the cells is composed of αMEM with foetal calf serum (7%) and antibiotics: 50 IU/ml penicillin and 50 μg/ml streptomycin and methotrexate (100 μM to 200 μM).
(§2) This technique enables the kinetics of the exit of iodide to be monitored. The cells are cultured in 12-well plates with a dilution to 1/10 after passage. On day 3, the drugs to be tested are dissolved in medium B (37° C.) according to the required concentration. The wells are washed twice with 1 ml of medium B NaOH, 0.1% glucose, which is then replaced by 1 ml of charging solution for 30 min.
(§3) The operation is repeated over 10 min and the cells are then detached with 1 ml of NaOH 0.1N SDS 0.1%. The contents of each well are collected in a haemolysis tube after agitation for 25 min, and the tubes are counted for 2 min in a gamma counter.
(§4) The study relates to molecules of the benzoquinolizinium family described above. They are tested for their ability to activate the CFTR channel. Screening of molecules as openers of the CFTR channel was carried out by measuring their effect on the efflux of radioactive iodide and on the transmembrane chloride currents (Becq et al., 1993a).
2) CHO cell: efflux of radioactive iodide in
CHO cells transfected with the CFTR chain (labelled CHO-CFTR (+) on FIG. 2B) in the presence or absence of the abovementioned activators.

Another experiment concerns CHO (CFTR−) cells. Put plainly: Efflux of radioactive iodide in control CHO (CFTR−) cells not transfected with CFTR. It counts as cell-based, Chinese hamster.
In experiment [2] the target is T1, CFTR channel. Briefly: Efflux of radioactive iodide in HT29 cells. The experiment is classed as cell-based. The arrangement: the human colon cell of the line HT29 which expresses the protein CFTR constitutively; endogenous in cells; host or cells: HT29 human colon cells. The conditions noted are these: 500 μM. How it is done:
as §1, §2, §3

For the next experiment, the system named is intracellular cAMP. Put plainly: Level of intracellular cAMP in recombinant CHO cell. The experiment is classed as cell-based, Chinese hamster. The conditions noted are these: after 5 min. How it is done:
as §4
FIG. 12: Histograms representing the levels of cAMP (measured in nmol per mg of protein) in the CHO cells which have been transfected with the CFTR gene and have not been activated (basal), or have been activated by forskoline (forskoline), or have been activated by rolipram (rolipram), or have been activated by MPB-07 (MPB-07).

For experiment [3], the target named is T1, CFTR channel. Put plainly: Efflux of radioactive iodide in Xenopus ovocyte injected with cRNA-CFTR. As to conditions: Xenopus ovocyte expressing CFTR, 500 μM. The experiment is classed as cell-based.
Experiment [4] concerns the target T1, CFTR channel. Put plainly: Patch clamping, CFTR channel activation. The conditions noted are these: rolipram. The experiment is classed as cell-based. The arrangement: expressed in transfected cells; host or cells: CHO-K1 cells, vector pNUT. How it is done: The patch clamping experiments are carried out on confluent cells. A fragment of the glass slide (cell support) is placed in an experimental chamber (volume 600 μl or 1 ml) on the platen of an inverted microscope fitted with phase contrast illumination (Olympus IMT2). The cell-attached and inside-out configurations are used (Hamill et al., 1981). The experiments are carried out at room temperature (20-22° C.). The currents are amplified with a LIST EPC 7 amplifier (Darmstadt, Germany) (filter of 3 kHz) with a low-pass filter of 2-5 kHz (6-pole Bessel filter) and recorded with a DAT (digital audio tape) after digitalization (16 bits) at 44 kHz. The data are then transferred to an Olivetti M28PC computer. The pipettes are made from glass tubes of 1 mm diameter (Clarke Electromedical Instrument) in two or three stages with a horizontal drawer (Flaming/Brown type, model P-87. Sutter. Inst. Co. USA). The pipettes filled with a solution of 150 mM NaCI have a resistance of between 4 and 12 MΩ. The potentials are expressed as the difference between the potential of the patch electrode and that of the bath. […] The diffusion potentials are evaluated from the potential of the electrode corresponding to a zero current (when the channels are closed). […] To determine the current-voltage ratio, the ionic current amplitudes are measured form amplitude histograms. […]

Where [5] appears, read: efflux of iodide, recombinant CHO (CFTR+) cell, MPB and phenanthrene 500 μM.

T1 sequence (P13569 whole entry): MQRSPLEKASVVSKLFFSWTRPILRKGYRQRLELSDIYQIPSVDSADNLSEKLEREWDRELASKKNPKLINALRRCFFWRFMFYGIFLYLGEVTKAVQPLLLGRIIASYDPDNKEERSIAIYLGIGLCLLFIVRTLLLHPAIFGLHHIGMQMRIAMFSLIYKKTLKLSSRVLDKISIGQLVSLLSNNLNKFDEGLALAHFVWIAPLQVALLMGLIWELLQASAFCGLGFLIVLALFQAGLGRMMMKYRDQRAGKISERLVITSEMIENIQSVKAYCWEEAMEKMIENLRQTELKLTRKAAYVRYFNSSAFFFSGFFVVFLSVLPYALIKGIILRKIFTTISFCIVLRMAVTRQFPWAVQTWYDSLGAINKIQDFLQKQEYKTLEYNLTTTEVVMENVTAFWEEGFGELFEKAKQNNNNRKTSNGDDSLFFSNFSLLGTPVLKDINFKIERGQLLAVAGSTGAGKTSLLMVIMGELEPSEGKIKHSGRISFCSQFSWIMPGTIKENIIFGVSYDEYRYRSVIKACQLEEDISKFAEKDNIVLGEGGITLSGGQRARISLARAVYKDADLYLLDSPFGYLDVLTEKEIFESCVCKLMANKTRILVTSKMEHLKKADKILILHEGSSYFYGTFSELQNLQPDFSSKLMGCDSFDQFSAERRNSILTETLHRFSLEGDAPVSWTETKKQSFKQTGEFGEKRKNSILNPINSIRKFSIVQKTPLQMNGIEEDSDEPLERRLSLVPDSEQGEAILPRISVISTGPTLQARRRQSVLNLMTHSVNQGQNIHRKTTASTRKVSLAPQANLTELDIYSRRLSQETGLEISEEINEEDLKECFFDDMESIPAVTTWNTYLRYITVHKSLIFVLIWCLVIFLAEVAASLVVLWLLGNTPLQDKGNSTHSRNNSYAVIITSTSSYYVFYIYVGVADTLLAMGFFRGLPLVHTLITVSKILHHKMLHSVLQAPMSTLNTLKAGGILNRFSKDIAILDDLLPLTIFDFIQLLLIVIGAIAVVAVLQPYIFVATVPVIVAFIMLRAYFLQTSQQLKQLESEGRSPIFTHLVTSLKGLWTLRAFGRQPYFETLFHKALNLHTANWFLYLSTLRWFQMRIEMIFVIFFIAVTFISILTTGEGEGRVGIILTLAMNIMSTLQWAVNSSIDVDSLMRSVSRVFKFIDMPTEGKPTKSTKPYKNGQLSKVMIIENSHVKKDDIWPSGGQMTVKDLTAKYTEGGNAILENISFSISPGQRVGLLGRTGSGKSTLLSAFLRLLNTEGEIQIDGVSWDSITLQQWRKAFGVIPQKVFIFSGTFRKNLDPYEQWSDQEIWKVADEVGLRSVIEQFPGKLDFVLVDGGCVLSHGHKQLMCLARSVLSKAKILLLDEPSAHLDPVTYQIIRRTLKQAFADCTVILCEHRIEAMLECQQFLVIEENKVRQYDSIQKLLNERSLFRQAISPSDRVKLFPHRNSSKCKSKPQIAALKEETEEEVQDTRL
From the text for CHO (CFTR−) cells: CHO cells which have not been transfected with the protein CFTR (labelled CHO-CFTR (−) on FIG. 2 B) in the presence or absence of the abovementioned activators:

Take `c1ccc2c(c1)ccc1ccccc12` [phenanthrene, reference compound]: on CFTR channel [1] (CHO (CFTR+) cells), the “effect on the efflux of iodide / CFTR channel activation” value is given as “does not activate the CFTR channel”. Further, the activation at 500 µM at CFTR channel [1] (setting [5]) was below 5%.

Consider `CNc1ccc2oc(C[C@H]3O[C@@]4(CC[C@H]3C)O[C@H]([C@H](C)C(=O)c3ccc[nH]3)[C@H](C)C[C@H]4C)nc2c1C(=O)O` [Compound A23187, reference compound], for which the “effect on the basal level of the efflux of iodide” value (“effect on the basal level” below) with CHO (CFTR−) cells (10 μM) is reported as “do not significantly modify the basal level of the efflux of iodide”. In addition, at CFTR channel [1] (CHO (CFTR+) cells, 10 μM), the “effect on the efflux of iodide” value is given as “has no effect”. As for `Nc1cc2cccc[n+]2c2cc(Cl)ccc12` [MPB-03, 6-Amino, 9-Chlorobenzo[c]quinolizinium Chloride], the activation at 500 µM on CFTR channel [1] (setting [5]) is 18%. Take `Oc1cc2ccccc2c2ccccc12` [MPB-25]: the activation at 500 µM at CFTR channel [1] was found to be 25%. Same read-out and setting: the same measure for `Nc1cc2ccccc2c2ccccc12` [MPB-24]: 18%. Turning to `Oc1cc2cccc[n+]2c2c(Cl)cccc12.[Cl-]` [MPB-07, 6-Hydroxy, 10-Chlorobenzo[c]quinolizinium Chloride], in the experiment on CHO (CFTR−) cells (500 μM), the “effect on the basal level” value is listed as “do not significantly modify the basal level of the efflux of iodide”. The “effect on the efflux of iodide” value on CFTR channel [2] is “triggers an efflux of iodide, with a similar rate and amplitude, which is increased with respect to the basal level”; on CFTR channel [3] it was “stimulates the efflux of iodide”. Further, in the experiment on intracellular cAMP (500 μM), the “level of cell cAMP” value was “The same level of cAMP is reached in the presence of the compounds MPB-07 and rolipram”. For the same compound, the “effect on the efflux of iodide / CFTR channel activation” value at CFTR channel [1] (CHO (CFTR+) cells) is “comparable in intensity and rate to that induced by forskoline (5 μM)”. The activation at 500 µM on CFTR channel [1] (setting [5]) came to 110%.

Turning to `COc1ccc(C2CNC(=O)C2)cc1OC1CCCC1` (centres unmarked) [rolipram], the “effect as a CFTR activator measured by patch clamping” value on CFTR channel [4] is on record as “has no effect as a CFTR activator”. The “level of cell cAMP” value with intracellular cAMP (10 μM) was “The same level of cAMP is reached in the presence of the compounds MPB-07 and rolipram”. For the same compound, on CFTR channel [1] (rolipram), the “effect as a CFTR activator measured by the flow of iodide” value is “has no effect as a CFTR activator”. In the case of `Nc1cc2cccc[n+]2c2cccc(Cl)c12` [MPB-04, 6-Amino, 7-Chlorobenzo[c]quinolizinium Chloride], on CFTR channel [1] (setting [5]), the activation at 500 µM was 11%. Turning to `Nc1cc2cccc[n+]2c2ccccc12` [MPB-26, 6-Aminobenzo[c]quinolizium], the “% activation relative to control” value at CFTR channel [1] (setting [5]) came out at 30%. In the case of `Nc1ncnc2c1nc(Sc1ccc(Cl)cc1)n2[C@@H]1O[C@@H]2COP(=O)(O)O[C@H]2[C@H]1O` [c-cpt-AMP, cyclic 8-(4-chlorophenylthio)-adenosine 3′,5′-monophosphate], the “effect on the basal level” value with CHO (CFTR−) cells (500 μM) is “has no effect”. For the compound `C=C[C@@]1(C)CC(=O)[C@]2(O)[C@@]3(C)[C@@H](O)CCC(C)(C)[C@@H]3[C@H](O)[C@H](OC(C)=O)[C@@]2(C)O1` [forskoline], the “effect on the basal level” value in the experiment with CHO (CFTR−) cells (5 μM) is “do not significantly modify the basal level of the efflux of iodide”. Further, the “effect on cAMP, multiplication factor” value with intracellular cAMP (5 μM) was “about 4”. In addition, on CFTR channel [1] (efflux of iodide, recombinant CHO (CFTR+) cell, forskoline 5 μM), the “% activation relative to control” value is 109%. Take `Oc1cc2cccc[n+]2c2ccccc12` [MPB-05, 6-Hydroxybenzo[c]quinolizinium Chloride]: the activation at 500 µM at CFTR channel [1] (setting [5]) came to 20%. Consider “6-Hydroxbenzo[c]quinolizinium Bromide [MPB-06]”, for which, on CFTR channel [1] (setting [5]), the “% activation relative to control” value was determined as 53%. For the compound `Oc1cc2cccc[n+]2c2cc(Cl)ccc12` [MPB-08, 6-Hydroxy, 9-Chlorobenzo[c]quinolizinium Chloride], the activation at 500 µM on CFTR channel [1] (setting [5]) came out at 22%. On the same count and under the same terms, the same measure for `Oc1cc2cccc[n+]2c2cccc(Cl)c12` [MPB-27, 6-Hydroxy, 7-Chlorobenzo[c]quinolizinium Chloride]: 95%.
